Measured values reported in patent publication US20070213291A1, “Therapeutically useful synthetic oligonucleotides” (priority 1999, published 2007).
Where “and” joins values, the source holds several entries; their conditions need not be identical. Identical values can stand only once.

What was measured:
[1] = test system: human peripheral blood mononuclear cells; assay: Cytokine production by human PBMC (ELISA); type: cell-based; details: PBMC of 7 healthy humans, 100 μg/ml, 48 h
In short: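 PBMC from 7 healthy donors, Ficoll-isolated; 1×10^6 cells incubated with 100 μg/ml oligonucleotide sequence for 48 h at 37 °C, 5% CO2. IL-1beta, IL-6, IL-10, IL-12 (p70 plus free p40) and TNF-alpha measured by ELISA in supernatant, expressed as fold increase over control cells.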

[2] = test system: THP-1 human acute monocytic leukemia cells; assay: Cytokine production by THP-1 cells (ELISA); type: cell-based; details: THP-1, 1×10^6 cells, 100 μg/ml, 48 h; for ↑ IL-12 (fold increase treated vs control cells): p70 complex and free p40
In short: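 Read-out is fold increase in supernatant cytokine versus control cells, measured by ELISA (IL-12 ELISA counts p70 complex plus free p40). Unless noted, sequences were tested at 100 μg/ml on 1×10^6 cells, incubated 48 h, 37° C, 5% CO2.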

[3] = test system: THP-1 human acute monocytic leukemia cells; assay: Inhibition of THP-1 cell proliferation (MTT); type: cell-based; details: 100 μg/ml, 48 h, 1.6×10^6 cells/ml
Method: (§1) Cells were seeded in 6 (1 ml/well), 24 (0.5 ml/well) or 96 (0.1 ml/well) well flat-bottom microplates and were maintained at 37° C. in a 5% CO2 atmosphere. Unless stated otherwise, 2.5×10^5 cells/ml were incubated with 0 μg/ml (control) and 100 μg/ml (treated) of 2 to 45 base sequences containing A, C, G and T for 48 h.
(§2) Cell proliferation was measured using dimethylthiazol-diphenyl-tetrazolium (MTT) reduction (Mosman et al. J. Immunol. Methods 65:55, 1983). MTT was measured at a wavelength of 570 nm using a multiplate spectrophotometer reader (ELX800, Bio-TEK Instruments Inc., Winooski, Vt.).
THP-1 acute monocytic leukemia cells are a p53 null human suspension tumor model. THP-1 cells (1.6×10^6 cells/ml) were incubated with 6 base GT sequences (Table 10).

[4] = test system: MCF-7 human breast cancer cells; assay: Inhibition of MCF-7 cell proliferation (MTT); type: cell-based; details: 100 μg/ml, 48 h, 5×10^5 cells/ml
Method: as §1, §2
MCF-7 human breast cancer cells are a caspase 3 negative, estrogen-dependent human solid tumor model. MCF-7 cells (5×10^5 cells/ml) were incubated with 3 and 6 base GT sequences (Table 7).

[5] = test system: HL-60 human promyelocytic leukemia cells; assay: Inhibition of HL-60 cell proliferation (MTT); type: cell-based; details: 100 μg/ml, 48 h
Method: as §1, §2
HL-60 promyelocytic leukemia cells are a p53 mutated human suspension tumor model. HL-60 cells were incubated with 6 base GT sequences (Table 6).

[6] = test system: PC-3 human prostate cancer cells; assay: Inhibition of PC-3 cell proliferation (MTT); type: cell-based; details: 100 μg/ml, 48 h, 5×10^5 cells/ml
Method: as §1, §2
PC-3 prostate cancer cells are a p53 mutated, androgen-independent human solid tumor model. PC-3 cells (5×10^5 cells/ml) were incubated with 3 and 6 base GT sequences (Table 8).

[7] = test system: Jurkat human leukemia T cells; assay: Inhibition of Jurkat human leukemia T cell proliferation (MTT reduction); type: cell-based; details: for % INHIBITION of Jurkat human leukemia T cell proliferation: 100 μg/ml sequence, 48 h, 2.5×10^5 cells/ml; for proliferation, cell cycle arrest and apoptosis of Jurkat T cells (summary in words): M. phlei murA derived sequences
In short: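 Read-out is MTT absorbance at 570 nm after 48 h. Sequences of 2 to 45 bases (A, C, G, T) tested at 100 μg/ml against untreated control, with 2.5×10^5 Jurkat cells/ml held at 37° C under 5% CO2.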

[8] = test system: A20 murine B leukemia cells; assay: Inhibition of A20 cell proliferation (MTT); type: cell-based; details: 100 μg/ml, 48 h
Method: as §1, §2
A20 murine leukemia B cells are a suspension tumor model. A20 murine leukemia B cells were incubated with 6 base GT sequences (Table 19).

chimpanzee PBMCs = assay: Cytokine production by chimpanzee PBMC (ELISA); type: cell-based; details: PBMC of 4 healthy chimpanzees, 100 μg/ml, 48 h
Method: (§3) Unless stated otherwise, 1×10^6 cells were incubated with 100 μg/ml of each of the sequences tested for 48 h at 37° C. in 5% CO2. Production of cytokines IL-6, IL-10, IL-12, IL-1beta and TNF-alpha was determined in pg/ml in 100 μl of culture supernatant using the appropriate commercial ELISA (BioSource, Camarillo Calif.). The IL-12 ELISA measures both IL-12 p70 complex and free p40 subunit. Results are expressed as the “fold” (×) increase in cytokine production by treated cells compared to control cells.
PBMCs were isolated from 4 healthy chimpanzees as in Example 35. Chimpanzee PBMCs were incubated with 6 base GT, AGT, CGT, AG, CG and GG sequences and production of the cytokines IL-10, IL-12 and TNF-alpha was determined (Table 41).

[9] = test system: LNCaP human prostate cancer cells; assay: Inhibition of LNCaP cell proliferation (MTT); type: cell-based; details: 100 μg/ml, 48 h, 5×10^5 cells/ml
Method: as §1, §2
LNCaP prostate cancer cells are a TGF-beta 1 receptor negative, […], metastatic human solid tumor model. LNCaP cells (5×10^5 cells/ml) were incubated with 6 base GT sequences (Table 9).

rhesus monkey PBMCs = assay: Cytokine production by rhesus monkey PBMC (ELISA); type: cell-based; details: PBMC of 4 healthy rhesus monkeys, 100 μg/ml, 48 h
Method: as §3
PBMCs were isolated from 4 healthy rhesus monkeys as in Example 35. PBMCs were incubated with 6 base GT, AGT, CGT, AG, CG ands GG sequences and production of the cytokines IL-6, IL-12 and TNF-alpha was determined (Table 42).

caspase 3 [10] = assay: Active caspase 3 by FITC-conjugated antibody flow cytometry; type: cell-based, human; details: Jurkat, 72 h, 100 μg/ml, cytometric (FIG. 2A)
Method: (§4) To determine caspase activation, control and treated cells are washed, fixed, permeabilized and incubated with an FITC-conjugated antibody that recognizes the active form of the caspase (Pharmingen, San Diego, Calif.) using the conditions recommended by the manufacturer. Fluorescence associated with active caspase 3 is analyzed by flow cytometry on a FACSCALIBUR using the program CellQUEST (Becton Dickinson). Alternatively, caspase activation is determined colorimetrically using an assay based on the cleavage of a caspase-specific peptide conjugated to the color reporter molecule p-nitroanilide, which can be quantitated spectrophotometrically at a wavelength of 405 nm.
(§5) Jurkat T cell leukemia cells were incubated for 72 h with 33 base GT SEQ ID NO:66; 11 base GT SEQ ID NO:81 (bases 1-11 of GT SEQ ID NO:66), 11 base GT SEQ ID NO:82 (bases 12-22 of GT SEQ ID NO:66), 11 base GT SEQ ID NO:83 (bases 23-33 of GT SEQ ID NO:66) and 15 base ACG SEQ ID NO:67. Active caspase 3 (17-22 kDa) was determined using FITC conjugated antibody (Clone: C92-605) as in Example 28.

[11] = test system: Jurkat human leukemia T cells; assay: Apoptosis by phosphatidylserine/annexin V-FITC flow cytometry; type: cell-based; details: M. phlei murA derived sequences
In short: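 Jurkat cells were exposed to 3–7-base oligonucleotides (GT, ACGT, AG, GG, AGT, CGT sequences) at 50 μM. Separately, 6-base GT and complementary AC sequences, alone or hybridized 1:1 (10 min, 65 °C), were applied for 24 h. Phosphatidylserine exposure was quantified by flow cytometry with FITC-annexin V.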

caspase 3 [12] = assay: Caspase 3 activation, colorimetric (p-nitroanilide peptide cleavage); type: cell-based, human; details: Jurkat, 72 h, 100 μg/ml
Method: as §4, §5
Caspase 3 activation also was determined colorimetrically as in Example 28.
Jurkat T cell leukemia cells were incubated for 72 h with 6 base GT SEQ ID NO:25. Caspase 3 activation was determined colorimetrically as in Example 28.

[13] = test system: Jurkat human leukemia T cells; assay: Cell cycle stage in Jurkat cells (propidium iodide flow cytometry); type: cell-based; details: Jurkat, M. phlei murA derived sequences
In short: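 Phase distribution (G0/G1, early, mid and late S, G2/M) came from flow cytometry with doublet discrimination on propidium iodide-stained nuclei. Jurkat cells were given 24 h exposure to 2–45-base oligonucleotides, or at 1×10^6 cells/ml to single 6-base GT or AC strands heated 10 min at 65 °C or 1:1 hybridized duplex.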

Sequence	IL-1 beta fold increase: mean +/− SD [1]	IL-6 fold increase: mean +/− SD [1]	IL-10 fold increase: mean +/− SD [1]	IL-12 fold increase: mean +/− SD [1]	↑ IL-6 (fold increase treated vs control cells) [2]	↑ IL-12 (fold increase treated vs control cells) [2]	% INHIBITION of THP-1 human acute monocytic leukemia cell proliferation [3]	% INHIBITION of MCF-7 human breast cancer cell proliferation [4]	% INHIBITION of HL-60 human promyelocytic leukemia cell proliferation [5]	% INHIBITION of PC-3 human prostate cancer cell proliferation [6]	% INHIBITION of Jurkat human leukemia T cell proliferation [7]	% INHIBITION of A20 murine B leukemia cell proliferation [8]	IL-10 fold increase: mean +/− SD (chimpanzee PBMCs)	IL-12 fold increase: mean +/− SD (chimpanzee PBMCs)	TNF-alpha fold increase: mean +/− SD (chimpanzee PBMCs)	% INHIBITION of LNCaP human prostate cancer cell proliferation [9]	IL-10 fold increase: mean +/− SD (rhesus monkey PBMCs)	IL-12 fold increase: mean +/− SD (rhesus monkey PBMCs)	TNF-alpha fold increase: mean +/− SD (rhesus monkey PBMCs)	processing of inactive pro-caspase 3 to active caspase 3 (caspase 3 [10])	further results
TGTGTG [SEQ ID NO:9]	1.2 +/− 0.4 fold increase	8.3 +/− 12.8 fold increase	1.0 +/− 0.1 fold increase	2.7 +/− 2.6 fold increase	4.0x	1.8x	0%	6%	7%	16%	37% and 36%	22%	2.3 +/− 1.3 fold increase	13.5 +/− 8.9 fold increase	11.3 +/− 6.9 fold increase	−9%	1.1 +/− 0.2 fold increase	10.6 +/− 4.2 fold increase	14.3 +/− 6.3 fold increase		
GTGTGTTTGGT (unmodified DNA) [SEQ ID NO:81]											22%									induced processing of inactive pro-caspase 3 to active caspase 3	% at cells in apoptosis [11]: 23%; proliferation, cell cycle arrest and apoptosis of Jurkat T cells (summary in words) [7]: inhibited proliferation of, induced cell cycle arrest in and induced apoptosis of Jurkat T cells; caspase 3 activity greater than in control cells (caspase 3 [12]): 77%
TTTGTT [SEQ ID NO:23]	1.0 +/− 0.1 fold increase	11.8 +/− 9.0 fold increase	1.0 +/− 0.1 fold increase	1.1 +/− 0.3 fold increase	4.9x	3.5x	8%	7%	13%	14%	31%	5%	1.5 +/− 0.6 fold increase	12.9 +/− 8.2 fold increase	9.0 +/− 5.5 fold increase	14%	1.0 +/− 0.1 fold increase	6.7 +/− 3.6 fold increase	4.4 +/− 3.8 fold increase		
GGTTTTGTTTG (unmodified DNA) [SEQ ID NO:82]											20%									induced processing of inactive pro-caspase 3 to active caspase 3	cell cycle arrest [13]: End SE; % at cells in apoptosis [11]: 25%; proliferation, cell cycle arrest and apoptosis of Jurkat T cells (summary in words) [7]: inhibited proliferation of, induced cell cycle arrest in and induced apoptosis of Jurkat T cells; caspase 3 activity greater than in control cells (caspase 3 [12]): 100%
GGTGGG [SEQ ID NO:24]	0.9 +/− 0.1 fold increase	15.9 +/− 14.9 fold increase	2.4 +/− 2.9 fold increase	2.3 +/− 1.6 fold increase	6.9x	3.7x	6%	41%	18%	26%	48%	9%	2.9 +/− 1.5 fold increase	14.3 +/− 9.1 fold increase	11.9 +/− 7.0 fold increase	17%	1.0 +/− 0.1 fold increase	11.2 +/− 4.8 fold increase	14.5 +/− 5.4 fold increase		
TTGTTTTTTTTG (unmodified DNA) [SEQ ID NO:83]											21%									induced processing of inactive pro-caspase 3 to active caspase 3	% at cells in apoptosis [11]: 16%; proliferation, cell cycle arrest and apoptosis of Jurkat T cells (summary in words) [7]: inhibited proliferation of, induced cell cycle arrest in and induced apoptosis of Jurkat T cells; caspase 3 activity greater than in control cells (caspase 3 [12]): 60%
